Data set [1] concerns the target T1, N-type calcium channels in IMR-32 cells (Homo sapiens, UniProt Q00975).
T1 construct: host or cells: IMR-32 cells differentiated with dibutyryl cAMP and bromodeoxyuridine
Nature of the data set: N-type Ca2+ channel blocking potency in IMR-32 cells using Indo-1. The class given is cell-based. The conditions noted are these: for inhibition at 1 µM / inhibition at 10 µM: IMR-32, IMR-32 cells; for inhibition at 1 µM: read-out: IMR32 % blockage at 1 μM; for inhibition at 10 µM: read-out: IMR32 % blockage at 10 μM; for IC50: IMR-32 cells. The protocol: Measurement of N-type Ca^2+ Channel Blocking Potencies of Compounds in IMR-32 Cells Using the Fluorescent Ca^2+ Indicator Indo-1
IMR-32 cells are a human tumoral cell line of neural origin. […] Calcium flux into these cells may be induced by stimulation with elevated potassium concentrations. The L-channel component of calcium flux may be blocked by adding 5 μM nitrendipine. The remaining component of calcium entry into the IMR-32 cells is due to calcium flux through N-type calcium channels. Intracellular calcium concentrations are measured using the fluorescent calcium indicator Indo-1. The effect of drug concentration on calcium uptake is studied.
The IMR-32 cell line was obtained from the American Type Culture Collection (Rockville, Md.). Cells were grown in Eagle's Minimum Essential Medium with Earle's salts supplemented with 10% fetal bovine serum, 2 mM L-Gln and antibiotic/antimycotic mixture (Gibco). At approximately 80% confluency, differentiation was induced by the addition of 1 mM dibutyryl cAMP and 2.5 μM bromodeoxyuridine to the medium. After 7 to 13 days of differentiation, cells were detached using 0.5 mM EDTA and loaded with 5 μM Indo-1 acetoxymethyl ester (Molecular Probes, Eugene, Oreg.) at 30° C. for 45 minutes. Loaded cells were washed twice, resuspended (˜10^7 cells/mL) in assay buffer (10 mM HEPES/Tris pH 7.4 in Hank's Balanced Salt Solution without bicarbonate or phenol red containing 0.5% bovine serum albumin) and kept on ice until use. Fluorescence measurements were carried out in a Photon Technology International (PTI, South Brunswick, N.J.) Model RF-F3004 spectrofluorometer with dual emission monochromators using excitation at 350 nm and emission at 400 and 490 nm. The instrument was equipped with a thermostated cuvette holder with stirring capabilities as well as with a computer-controlled pump which allowed for reagent addition during measurement. Instrument control and data collection was done by PTI's OSCAR software running on an IBM compatible computer. Different concentrations of the test compounds (60 μL in dimethyl sulfoxide) were added to 5.94 mL of assay buffer containing approximately 3×10^6 loaded cells, and 5 μM Nitrendipine (in 30 μL EtOH) to block L-type Ca^2+ channels. Samples were incubated for 10 minutes at 30° C. and the aliquot into three 10×10 mm disposable acrylic cuvettes. Emission signals at 400 and 490 nm were acquired from each cuvette at 30° C. for 50 seconds. At 20 seconds after the start of reading, cells were depolarized by the addition of 160 μL of stimulation solution (1 M KCl, 68 mM CaCl2) to the cuvette via the computer-controlled pump. Ratio of dual emission signals (400/490 nm), which is proportional to intracellular Ca^2+ concentration, was plotted against time, and the difference between maximal response after stimulation and basal value (before stimulation) was determined. Values obtained in this way were plotted as a function of drug concentration. IC50 values of test compounds were calculated by fitting a four-parameter logistic function to the data using the least squares method.

Data set [2] addresses T2, L-type calcium channels in A10 cells (Rattus norvegicus, UniProt P22002).
T2 construct: which endogenously expresses L-type calcium channels; host or cells: A10 rat embryonic thoracic aorta smooth muscle cells
In words: L-type Ca2+ channel blocking potency in A10 cells (FLIPR). The class given is cell-based. The conditions noted are these: read-out: FLPA10 IC50. How it is done:
Measurement of L-type Ca^2+ Channel Blocking Potencies of Compounds in A10 Cells
Calcium flux through voltage-sensitive calcium channels was assessed by time-resolved monitoring of the fluorescence of pre-loaded calcium-sensitive dyes using FLIPR, a fluorescent image plate reader (Molecular Devices Co.). The A10 smooth muscle cell line derived from embryonic thoracic aorta of the DBIX rat (ATCC, CRL-1476) which endogenously expresses L-type calcium channels. The growth media for A10 cells was Ham's F12/DME high glucose (Irvine Scientific, 9052), supplemented with 20% fetal bovine serum (HyClone Labs, A-1115-L), and 1% each of L-glutamine and antibiotic-antimycotic (same source as above).
Cells were grown to confluency and replated on black-sided 96-well plates (Costar, 3603) for use in FLIPR. Two days after replating, growth media was removed and cells were loaded at 37° C. with 100 μL media containing 1 μM Oregon Green 488 Bapta-1 dye (Molecular Probes, O-6807) for 1 to 3 hours. The dye-containing media was then washed away with buffer (composition in mM: 1.25 CaCl2, 1.2 MgSO4, 11 glucose, 10 HEPES, 3.0 KCl, 137.0 NaCl, pH 7.4 with Tris base) in a Denley Cellwash (Labsystems, CW018B). The residual buffer volume was adjusted to 50 μL. A 5 minute drug-pre-incubation period at 35° C. was initiated when 50 μL of drug-containing buffer was pipetted into the cell plate with the 96-well pipettor integrated in the FLIPR apparatus. Fluorescent counts were monitored at 20 second intervals for 360 seconds, beginning 60 seconds prior to the delivery of drug-containing buffer. Following drug addition, 100 μL aliquots of a high K^+, depolarizing stimulus (composition in mM: 1.25 CaCl2, 1.2 MgSO4, 11 glucose, 10 HEPES, 140.0 KCl, pH 7.4 with Tris base) were added to each well, and fluorescence was monitored at 1 second intervals for 120 seconds beginning 10 seconds prior to the stimulus addition. CCD camera exposure time was 0.4 seconds, laser excitation was at 488 nm with a power of 0.2-0.5W, and a 510 to 560 nm bandpass interference filter preceded the camera.
Data was analyzed as a summation of fluorescent counts above basal during the stimulation period (an approximation of area under the curve), after normalizing the data with a spatial uniformity correction (for variations in laser illumination and cell density) and a negative control correction (zero calcium increase defined as the fluorescence reading in the presence of saturating pharmacologic block of the respective calcium channel). Drug effects were expressed as percent inhibition of fluorescence from an average of 8 K^+-stimulated wells which were pre-treated in the drug incubation period with buffer only. In the A10 cells, the pharmacologic agent used to define zero calcium influx was nitrendipine (RBI, N-144) at a final concentration of 1.0×10^−6 M.

[3] abbreviates: 5 μM nitrendipine present, read-out: IMR32 IC50.
Setting [4] is: estimated from two data points, read-out: IMR32 IC50 (estimated IC50 values based on two data points).

The source of these data is patent publication US6458781B1, “Substituted diarylalkyl amides as calcium channel antagonists” (priority 1998, dated 2002).

Structures are written as SMILES. Read-outs that look alike come from different tables or passages of the source.

T1 sequence (Q00975 whole entry): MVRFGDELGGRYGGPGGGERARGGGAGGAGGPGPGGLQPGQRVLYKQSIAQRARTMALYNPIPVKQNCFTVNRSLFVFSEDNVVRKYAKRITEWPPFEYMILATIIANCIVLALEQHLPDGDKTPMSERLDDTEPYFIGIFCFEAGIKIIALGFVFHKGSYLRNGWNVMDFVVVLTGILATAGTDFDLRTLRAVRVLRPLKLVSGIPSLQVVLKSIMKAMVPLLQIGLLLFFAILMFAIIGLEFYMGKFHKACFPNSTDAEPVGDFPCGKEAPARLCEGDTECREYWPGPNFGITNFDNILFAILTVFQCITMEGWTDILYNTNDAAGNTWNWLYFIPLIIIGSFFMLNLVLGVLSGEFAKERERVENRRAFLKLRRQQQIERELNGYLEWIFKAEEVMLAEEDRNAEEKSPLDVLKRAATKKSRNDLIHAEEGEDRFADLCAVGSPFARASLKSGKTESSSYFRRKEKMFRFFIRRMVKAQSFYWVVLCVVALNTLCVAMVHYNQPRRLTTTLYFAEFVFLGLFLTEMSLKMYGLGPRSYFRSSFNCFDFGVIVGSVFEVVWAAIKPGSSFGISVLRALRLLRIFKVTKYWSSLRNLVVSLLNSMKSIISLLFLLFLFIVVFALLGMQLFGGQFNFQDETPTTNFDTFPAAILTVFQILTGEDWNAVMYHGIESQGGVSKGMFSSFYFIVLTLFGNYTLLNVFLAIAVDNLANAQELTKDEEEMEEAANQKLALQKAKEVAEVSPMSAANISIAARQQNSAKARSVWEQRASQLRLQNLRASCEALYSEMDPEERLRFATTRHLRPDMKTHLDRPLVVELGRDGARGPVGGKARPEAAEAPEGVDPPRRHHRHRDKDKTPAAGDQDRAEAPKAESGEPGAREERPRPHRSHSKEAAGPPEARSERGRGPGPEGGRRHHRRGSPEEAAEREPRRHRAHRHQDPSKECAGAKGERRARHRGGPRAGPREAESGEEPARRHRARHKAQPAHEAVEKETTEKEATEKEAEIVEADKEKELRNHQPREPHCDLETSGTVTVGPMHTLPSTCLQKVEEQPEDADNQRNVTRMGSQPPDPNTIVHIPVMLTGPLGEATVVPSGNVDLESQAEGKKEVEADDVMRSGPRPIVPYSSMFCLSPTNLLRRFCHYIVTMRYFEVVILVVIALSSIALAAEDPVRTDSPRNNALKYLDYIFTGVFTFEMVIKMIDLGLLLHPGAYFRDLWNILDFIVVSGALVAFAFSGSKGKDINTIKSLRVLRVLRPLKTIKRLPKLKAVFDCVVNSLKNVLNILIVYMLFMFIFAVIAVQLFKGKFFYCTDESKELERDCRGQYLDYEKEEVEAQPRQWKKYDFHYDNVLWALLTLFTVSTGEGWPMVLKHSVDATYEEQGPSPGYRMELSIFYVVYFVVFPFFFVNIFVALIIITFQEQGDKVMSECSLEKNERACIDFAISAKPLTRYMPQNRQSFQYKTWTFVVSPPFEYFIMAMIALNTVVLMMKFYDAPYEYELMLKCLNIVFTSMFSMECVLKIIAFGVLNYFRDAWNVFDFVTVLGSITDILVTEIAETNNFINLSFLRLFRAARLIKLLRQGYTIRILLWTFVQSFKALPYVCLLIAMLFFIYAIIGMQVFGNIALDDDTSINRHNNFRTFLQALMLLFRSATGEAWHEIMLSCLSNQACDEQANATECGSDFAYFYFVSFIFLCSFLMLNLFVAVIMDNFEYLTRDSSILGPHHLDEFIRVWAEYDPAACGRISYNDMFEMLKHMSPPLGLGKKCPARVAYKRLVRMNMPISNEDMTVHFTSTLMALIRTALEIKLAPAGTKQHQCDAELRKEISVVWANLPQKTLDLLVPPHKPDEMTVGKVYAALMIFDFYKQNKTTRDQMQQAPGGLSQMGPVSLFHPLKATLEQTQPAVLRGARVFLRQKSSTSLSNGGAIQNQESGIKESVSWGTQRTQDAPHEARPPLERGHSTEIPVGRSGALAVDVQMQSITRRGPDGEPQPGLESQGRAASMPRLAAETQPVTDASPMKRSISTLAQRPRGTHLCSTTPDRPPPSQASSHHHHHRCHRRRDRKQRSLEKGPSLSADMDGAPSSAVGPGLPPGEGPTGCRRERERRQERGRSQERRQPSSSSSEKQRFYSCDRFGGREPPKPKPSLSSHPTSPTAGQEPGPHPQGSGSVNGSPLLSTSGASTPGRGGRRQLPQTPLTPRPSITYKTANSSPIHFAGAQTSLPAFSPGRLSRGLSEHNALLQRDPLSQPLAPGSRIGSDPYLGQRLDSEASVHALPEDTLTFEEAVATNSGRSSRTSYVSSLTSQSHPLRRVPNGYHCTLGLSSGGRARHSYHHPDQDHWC
T1 sequence (P54289 25-956 partner limits assumed): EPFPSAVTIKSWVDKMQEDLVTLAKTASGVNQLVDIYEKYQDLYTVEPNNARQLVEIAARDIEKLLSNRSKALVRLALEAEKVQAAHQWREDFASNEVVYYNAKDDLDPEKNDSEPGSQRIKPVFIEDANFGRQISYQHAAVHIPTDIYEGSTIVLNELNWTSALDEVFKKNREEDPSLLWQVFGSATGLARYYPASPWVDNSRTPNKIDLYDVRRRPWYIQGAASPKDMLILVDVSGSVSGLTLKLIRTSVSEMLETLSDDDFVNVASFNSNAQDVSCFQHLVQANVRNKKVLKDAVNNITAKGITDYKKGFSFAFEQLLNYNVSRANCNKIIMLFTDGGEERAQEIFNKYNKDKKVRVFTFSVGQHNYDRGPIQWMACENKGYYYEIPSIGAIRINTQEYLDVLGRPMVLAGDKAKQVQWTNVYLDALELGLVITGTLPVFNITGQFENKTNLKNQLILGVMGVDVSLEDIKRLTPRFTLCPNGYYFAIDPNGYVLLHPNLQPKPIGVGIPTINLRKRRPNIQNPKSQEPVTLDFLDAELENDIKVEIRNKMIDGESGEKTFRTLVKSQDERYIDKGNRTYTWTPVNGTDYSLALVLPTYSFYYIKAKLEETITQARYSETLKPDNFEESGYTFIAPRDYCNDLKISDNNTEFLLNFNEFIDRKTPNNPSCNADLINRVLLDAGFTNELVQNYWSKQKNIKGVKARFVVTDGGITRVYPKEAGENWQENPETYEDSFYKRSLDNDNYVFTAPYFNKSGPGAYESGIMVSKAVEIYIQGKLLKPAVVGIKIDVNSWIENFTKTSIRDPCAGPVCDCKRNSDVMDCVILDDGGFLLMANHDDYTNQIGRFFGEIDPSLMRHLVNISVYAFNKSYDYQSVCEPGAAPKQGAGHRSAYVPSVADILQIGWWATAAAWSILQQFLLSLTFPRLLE
T1 sequence (P54289 957-1103 partner limits assumed): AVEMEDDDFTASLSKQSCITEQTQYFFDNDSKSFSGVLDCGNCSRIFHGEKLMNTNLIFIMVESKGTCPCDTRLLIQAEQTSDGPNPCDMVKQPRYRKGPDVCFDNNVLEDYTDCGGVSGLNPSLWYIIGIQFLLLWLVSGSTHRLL
T1 sequence (Q02641 whole entry partner): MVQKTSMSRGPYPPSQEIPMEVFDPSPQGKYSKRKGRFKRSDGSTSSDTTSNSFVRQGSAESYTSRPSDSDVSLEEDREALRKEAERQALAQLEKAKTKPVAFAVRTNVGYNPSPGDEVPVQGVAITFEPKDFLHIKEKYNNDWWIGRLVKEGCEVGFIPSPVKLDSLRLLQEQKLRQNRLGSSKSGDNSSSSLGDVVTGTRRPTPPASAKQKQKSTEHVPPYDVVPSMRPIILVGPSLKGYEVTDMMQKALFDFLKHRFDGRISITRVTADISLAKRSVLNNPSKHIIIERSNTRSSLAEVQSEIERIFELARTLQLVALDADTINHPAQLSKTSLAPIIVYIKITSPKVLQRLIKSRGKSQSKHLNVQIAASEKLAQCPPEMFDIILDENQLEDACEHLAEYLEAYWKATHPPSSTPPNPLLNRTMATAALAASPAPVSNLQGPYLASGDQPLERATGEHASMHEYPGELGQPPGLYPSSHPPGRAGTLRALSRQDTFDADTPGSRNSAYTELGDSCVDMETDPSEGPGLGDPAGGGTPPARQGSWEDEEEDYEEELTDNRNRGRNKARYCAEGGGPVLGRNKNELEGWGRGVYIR

The IC50 is the concentration that inhibits the measured activity by half. For orientation: melting point means the temperature, or range, at which the solid turns liquid. `CC(C)CC(NC(=O)N1CCN(C)CC1)C(=O)N1CCN(C(c2ccc(F)cc2)c2ccc(F)cc2)CC1` (stereo in doubt) [Example 47, (S)-4-Methyl-piperazine-1-carboxylic acid (1-{4-[bis-(4-fluoro-phenyl)-methyl]-piperazine-1-carbonyl}-3-methyl-butyl)-amide] returned a melting point of 65 to 78 °C. Also, in data set [1], the inhibition at 1 µM is 13% and the inhibition at 10 µM amounted to 54%. Also, the IC50 in data set [2] stood at 1.7 µM.

`CC(C)C[C@H](NC(=O)OC(C)(C)C)C(=O)NCCCC(c1ccc(F)cc1)c1ccc(F)cc1` [Example 6, (S)-{1-[4,4-Bis-(4-fluoro-phenyl)-butylcarbamoyl]-3-methyl-butyl}-carbamic acid tert-butyl ester] yielded a melting point of 50 to 55 °C. Also, the IC50 in data set [1] (setting [3]) stood at 1.3 µM.

In turn, `CC(C)C[C@H](NC(=O)N1CCCCCC1)C(=O)NCCCC1(c2ccccc2)C(=O)N(C)c2ccccc21` (stereo partly drawn) [Example 10, (S)-Azepane-1-carboxylic acid {3-methyl-1-[3-(1-methyl-2-oxo-3-phenyl-2,3-dihydro-1H-indol-3-yl)-propylcarbamoyl]-butyl}-amide] yielded a melting point of 181 to 182 °C. The IC50 in data set [1] (setting [3]) amounted to 2.6 µM.

`CC(C)C[C@H](NC(=O)N1CCCCCC1)C(=O)NCc1nn(-c2ccccc2)c2ccccc12` [Example 11, (S)-Azepane-1-carboxylic acid {3-methyl-1-[(1-phenyl-1H-indazol-3-ylmethyl)-carbamoyl]-butyl}-amide] displayed a melting point of 135 to 136 °C. Further, the IC50 in data set [1] (setting [3]) was 4 µM.

Take `CCC(C)[C@H](NC(=O)N1CCCCCC1)C(=O)NCCCC(c1ccc(F)cc1)c1ccc(F)cc1` (stereo partly drawn) [Example 16, (S)-Azepane-1-carboxylic acid {1-[4,4-bis-(4-fluoro-phenyl)-butylcarbamoyl]-2-methyl-butyl}-amide]: the melting point fell in the range of 50 to 60 °C. Also, the IC50 in data set [1] (setting [4]) is 0.61 µM. In addition, the IC50 in data set [2] worked out at 0.27 µM.

Regarding `CC(C)C[C@H](NC(=O)N1CCN(c2ccccc2)CC1)C(=O)NCCCC(c1ccc(F)cc1)c1ccc(F)cc1` [Example 17, (S)-4-Phenyl-piperazine-1-carboxylic acid {1-[4,4-bis-(4-fluoro-phenyl)-butylcarbamoyl]-3-methyl-butyl}-amide], the melting point lay within 138 to 141 °C. In addition, the IC50 in data set [1] (setting [4]) is 2 µM. Also, the IC50 in data set [2] was 0.074 µM.

As for `CC(C)C[C@@H](C(=O)NCCCC(c1ccc(F)cc1)c1ccc(F)cc1)N1CCCCC1` [Example 22, (S)-4-Methyl-2-piperidin-1-yl-pentanoic acid [4,4-bis-(4-fluoro-phenyl)-butyl]-amide], the melting point is 52 to 70 °C. Besides, in data set [1], the inhibition at 1 µM turned out to be 49% and the inhibition at 10 µM is 94%. Further, in data set [2], the IC50 turned out to be 0.16 µM.

The compound `CC(C)C[C@@H](C(=O)NCCC(c1ccccc1)c1ccccc1)N1CCCCC1.Cl` [Example 24, (S)-4-Methyl-2-piperidin-1-yl-pentanoic acid (3,3-diphenyl-propyl)-amide monohydrochloride] gave a melting point of 58 to 65 °C. Also, in data set [1], the inhibition at 1 µM came out at 35% and the inhibition at 10 µM is 89%. For the same compound, the IC50 in data set [2] came out at 1.5 µM.

The compound `CC(C)C[C@H](NCc1ccc(C(C)(C)C)cc1)C(=O)N1CCN(C(c2ccc(F)cc2)c2ccc(F)cc2)CC1` [Example 58, (S)-1-{4-[Bis-(4-fluoro-phenyl)-methyl]-piperazin-1-yl}-2-(4-tert-butyl-benzylamino)-4-methyl-pentan-1-one] returned a melting point of 57 to 62 °C. The concentration for half-maximal inhibition (IC50) in data set [2] is above 3 µM.

As for `CC(C)C[C@H](NCc1ccc(OC(C)(C)C)cc1)C(=O)N1CCN(C(c2ccc(F)cc2)c2ccc(F)cc2)CC1` [Example 64, (S)-1-{4-[Bis-(4-fluoro-phenyl)-methyl]-piperazin-1-yl}-2-(4-tert-butoxy-benzylamino)-4-methyl-pentan-1-one], the melting point lay within 56 to 61 °C. Moreover, the IC50 in data set [2] is 0.089 µM.
